Each block holds one compound with its values, some of them ahead of it.
Assays:
[1] = system: inositol triphosphate receptor (IP3R); assay: IP3R study: PE-induced contraction of pre-treated endothelium-denuded aortic rings; assay type: cell-based, rat; details: 100 μM pre-incubation; P<0.001
Procedure: Similar with the VOCC mechanism study, three sets of experiments were carried out for investigating IP3R including the positive control set by applying the 2-APB (100 μM), control set (without treatment), and experimental sets by applying F1-2 (100 μl of 0.5, 2, and 8 mg/ml, separately, which equals to final concentration of 0.005, 0.02, and 0.08 mg/ml in tissue bath), in the endothelium-denuded isolated aortic rings. Similar protocol as elaborated in VOCC mechanism study was used to investigate this mechanism study. The only step different from VOCC mechanism study was the cumulative addition of CaCl2 was replaced by adding PE (1 μM) and left for 20 minutes to induce transient contraction after the 20 minutes pre-incubation with either 2-APB (positive control), F1-2 (experimental sets). The Cmax values were recorded and compared among each other.

[2] = system: voltage-operated calcium channel (VOCC); assay: VOCC study: CaCl2-induced vasoconstriction of pre-treated aortic rings; assay type: cell-based, rat; details: 0.1, 0.3, 1 μM pre-incubation
Procedure: The experiment started by rinsing the mounted aortic rings with normal Krebs' solution for 3 times at 10 minutes interval. After that, the aortic rings were rinsed with EGTA (0.2 mM) contained Ca^2+-free high K^+ Krebs' solution for 10 minutes to eradicate the Ca^2+ residue, followed by rinsing with Ca^2+-free high K^+ Krebs' solution for twice at 10 minutes intervals. The resting potential was re-adjusted to 1.0 g before the application of any chemicals. In the control set, CaCl2 was added cumulatively (0.01-10 mM) into the tissue bath at 3 minutes interval. […] In the experimental groups, the F1-2 was added into tissue baths for 20 minutes before the addition of CaCl2. After that, the concentration-response curves were constructed, and maximum contraction (Cmax) values were recorded and compared to each other.

[3] = system: spontaneous hypertensive rats (SHRs); assay: Antihypertensive effect in SHRs, 28 days oral administration, tail-cuff SBP, DBP, MAP; assay type: in vivo, rat; details: 80 mg/kg oral
Procedure: All the orally administrated drugs were freshly prepared on the day the experiment was carried out. Thirty male SHRs were divided into five groups (n=6 per group) as such negative control, positive control (80 mg/kg of propranolol), and experimental groups (three different dosages for different groups). The weight, systolic BP, diastolic BP, and MAP of all SHRs in five groups were determined before the experiment was carried out and assigned as results for week 0. The negative control group of SHRs was treated with 5 ml/kg of distilled water. The positive control group was treated with 80 mg/kg of propranolol. The experimental groups were treated with 0.24273 (small dose), 0.48546 (medium dose), and 0.97092 g/kg (high dose) of F1-2, separately. Propranolol and F1-2 were prepared by dissolving in 0.5% of CMC prior to the administration. All drugs were orally administrated by using the 14-sized curved feeding needle (Kent Scientific Corporation, Torrington, Conn., USA) every morning after eight hours of fasting the night before, and were treated for 28 days consecutively with their weight, systolic BP, diastolic BP, and MAP measured once a week.
The SBP, DBP, and MAP were measured by using tail-cuff method with the non-invasive blood pressure measurement system, CODA (Kent Scientific Corporation, Torrington, Conn., USA) which was equipped with a controller, laptop CODA software, cuffs, animal restrainers, infrared warming pads, and infrared thermometer. The measurements were performed by the same researcher at the same daytime once weekly. Before the experiments commenced, the SHRs were housed in the restrainer according to their body size and pre-warmed on the warming plate at 32° C. and were covered by warming blanket for at least 15 minutes to intensify the pulsation of the tail artery. The measurements were repeated at least […] for each SHR to obtain at least six accepted measurements (n=6) by the CODA program. The obtained SBP, DBP, MAP of positive control and experimental groups were compared to the negative control.

contraction tension abolished compared to control [1]: approximately 97%
Structure (SMILES): NCCOB(c1ccccc1)c1ccccc1 [Formula 2-APB, 2-APB]

Structure (SMILES): COC(=O)C1=C(C)NC(C)=C(C(=O)OC)C1c1ccccc1[N+](=O)[O-] [nifedipine]
suppression of the contractile tone compared to control [2]: at least 80%

Structure (SMILES): CC(C)NCC(O)COc1cccc2ccccc12 (centres unmarked) [propranolol]
DBP ([3]; 28 days, control 189.19±3.61): 139.69±3.15 mmHg
MAP ([3]; 28 days, control 200.97±3.22): 152.06±3.10 mmHg
SBP ([3]; week 4 (28 days), control 225.81±2.77): 182.08±2.38 mmHg
